The target in one data set is T1, Anxa1 (Homo sapiens, UniProt P04083).
T1 construct: human recombinant Anxa1 protein consisting of 346 amino acid residues; purchased ATGen Corporation (Seongnam-si, South Korea)
T1 sequence (P04083 1-346): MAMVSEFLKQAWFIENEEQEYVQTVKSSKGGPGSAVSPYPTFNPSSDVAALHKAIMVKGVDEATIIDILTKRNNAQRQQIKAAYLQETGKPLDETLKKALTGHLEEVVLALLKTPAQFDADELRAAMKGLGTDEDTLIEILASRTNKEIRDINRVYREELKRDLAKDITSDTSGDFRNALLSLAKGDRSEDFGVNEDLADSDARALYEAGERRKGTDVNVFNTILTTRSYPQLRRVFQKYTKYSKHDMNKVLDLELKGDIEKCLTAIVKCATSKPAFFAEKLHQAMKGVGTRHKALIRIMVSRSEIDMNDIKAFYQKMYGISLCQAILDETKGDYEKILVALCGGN
As to the kind of experiment: intermolecular interaction with Anxa1 measured by the QCM method. It counts as binding. The protocol:
As for the peptides of the sequences of LRFPTVL (SEQ ID NO: 13), SPTSLLF (SEQ ID NO: 14), MPTLTFR (SEQ ID NO: 15) and LLSWPSA (SEQ ID NO: 17) with high emergence frequency besides the TIT7 sequence (SEQ ID NO: 12) described in Example 1, similar to the dTIT7 peptide, peptides (dLRF7, dSPT7, dMPT7 and dLLS7 peptides) composed of D-form amino acids were synthesized and the intermolecular interaction with Anxa1 was measured for each of them by the following method.
The sensor chip was washed twice with piranha solution for 5 min and then immersed overnight in a solution of 0.9 mM hydroxy-EG3-undecanethiol (Dojindo) and 0.1 mM amino-EG6-undecanethiol (Dojindo). After washing with water, the chip was treated with 1 mM GMBS (Dojindo) and incubated at room temperature for 1 hr. After washing away the remaining GMBS, 1 mM peptide solution was added onto the chip and the chip was incubated for 30 min. The peptide-bound sensor chip was placed in a QCM apparatus (Single-Q, ASONE), and 0.5 ml of PBS was added to the well. Various doses of Anxa1 were injected into the reaction chamber and the binding affinity (kd value) for each peptide was determined.

A short description of data set [1]: solubility and stability of IF7 (dosage form observations). Format: physicochemical. The protocol: That is, IF7 peptide is protease sensitive and is susceptible to degradation. Indeed, in an experiment including intravenous administration of A488-IF7 to healthy mouse, the fluorescence signal of peripheral blood almost disappeared in about 1 hour (FIG. 5). […] In addition, IF7 has high hydrophobicity and causes difficulty in dosage form such as the need for addition of a surfactant after dissolution in DMSO, in an attempt to avoid precipitation when a compound bound with an anticancer drug is intravenously administered.

Setting [2] is: QCM, peptide-bound sensor chip, various doses of Anxa1, read-out: kd value.

Here are results for 6 molecules from US10695396B2, “Malignant tumor target peptide” (NATIONAL INSTITUTE OF ADVANCED INDUSTRIAL SCIENCE AND …, priority 2016, dated 2020).

Where two headings read alike, the source gives them in different places. Square brackets hold non-standard residues; d marks the D form. Peptide text beside a SMILES is read from it.

On to `CSCC[C@@H](N)C(=O)N1CCC[C@@H]1C(=O)N[C@@H](C(=O)N[C@H](CC(C)C)C(=O)N[C@@H](C(=O)N[C@H](Cc1ccccc1)C(=O)N[C@H](CCCNC(=N)N)C(=O)O)[C@H](C)O)[C@H](C)O` [dMPT7, M[D] P[D] T[D] L[D] T[D] F[D] R[D]] (H-[dM][dP][dT][dL][dT][dF][dR]-OH; N-terminus and C-terminus assumed), for which, at Anxa1 (setting [2]), the Kd was 298 nM.
In the case of `CC(C)C[C@@H](NC(=O)[C@@H](CC(C)C)NC(=O)[C@@H](CO)NC(=O)[C@H](NC(=O)[C@H]1CCCN1C(=O)[C@H](N)CO)[C@H](C)O)C(=O)N[C@H](Cc1ccccc1)C(=O)O` [dSPT7, S[D] P[D] T[D] S[D] L[D] L[D] F[D]] (H-[dS][dP][dT][dS][dL][dL][dF]-OH; N-terminus and C-terminus assumed), the Kd on Anxa1 (setting [2]) worked out at 90.3 nM.
For the molecule `CC[C@H](C)[C@H](N)C(=O)N[C@@H](Cc1ccccc1)C(=O)N[C@@H](CC(C)C)C(=O)N[C@@H](CC(C)C)C(=O)N[C@@H](Cc1c[nH]c2ccccc12)C(=O)N[C@@H](CCC(N)=O)C(=O)N[C@@H](CCCNC(=N)N)C(=O)O` [IF7, IFLLWQR] (H-IFLLWQR-OH; N-terminus and C-terminus assumed), the solubility result in data set [1] is “poor solubility”. Further, the stability result in data set [1] (protease sensitivity) is given as “low stability”.
`CC(C)C[C@@H](N)C(=O)N[C@H](CCCNC(=N)N)C(=O)N[C@H](Cc1ccccc1)C(=O)N1CCC[C@@H]1C(=O)N[C@@H](C(=O)N[C@@H](C(=O)N[C@H](CC(C)C)C(=O)O)C(C)C)[C@H](C)O` [dLRF7, L[D] R[D] F[D] P[D] T[D] V[D] L[D]] (H-[dL][dR][dF][dP][dT][dV][dL]-OH; N-terminus and C-terminus assumed): the Kd at Anxa1 (setting [2]) came out at 31.2 nM.
In the case of `CC[C@@H](C)[C@@H](NC(=O)[C@H](N)[C@H](C)O)C(=O)N[C@@H](C(=O)N[C@H](Cc1c[nH]c2ccccc12)C(=O)N1CCC[C@@H]1C(=O)N[C@@H](C(=O)N[C@H](CCSC)C(=O)O)[C@H](C)O)[C@H](C)O` [dTIT7, T[D] I[D] T[D] W[D] P[D] T[D] M[D]], at Anxa1 (QCM method, dTIT7 and Anxa1, read-out: dissociation constant (Kd value)), the Kd was found to be 45.7 nM.
`CC(C)C[C@@H](N)C(=O)N[C@H](CC(C)C)C(=O)N[C@H](CO)C(=O)N[C@H](Cc1c[nH]c2ccccc12)C(=O)N1CCC[C@@H]1C(=O)N[C@H](CO)C(=O)N[C@H](C)C(=O)O` [dLLS7, L[D] L[D] S[D] W[D] P[D] S[D] A[D]] (H-[dL][dL][dS][dW][dP][dS][dA]-OH; N-terminus and C-terminus assumed): the Kd on Anxa1 (setting [2]) came out at 54.2 nM.

Broadly, the Kd is the free concentration of one partner at which half of the binding sites on the other are occupied at equilibrium, for simple one-to-one binding.
